{"source": "patent US12643954B2", "about": "“Anti-CD36 antibodies and their use to treat cancer” (ONA Therapeutics, S.L., priority 2020, dated 2026)", "key": {"[1]": {"test_system": "FaDu cells", "experiment": "FaDu orthotopic mouse model of oral cancer metastasis", "type": "in vivo", "conditions": "single agent", "method": "(§1) NOD scid gamma (NSG) (NOD.Cg-Prkdc^scidII2rg^tm1Wj1/SzJ) mice were purchased from Charles River and crossed in-house. All mice were housed under a regimen of 12h light/12h dark cycles and SPF conditions, and all procedures were evaluated and approved by the CEEA (Ethical Committee for Animal Experimentation) from the Government of Catalunya. SCC intra-tongue injection was performed as previously described (Oskarsson et al., 2014; Nieman et al., 2011). Briefly, mice were anesthetized by intraperitoneal injection with a mixture of 50 mg per kg of ketamine and 0.5 mg per kg of medetomidin, and SCC cells resuspended in 30 μl PBS were injected into each mouse tongue with a BD ultra-fine 6 mm needle. Mice were monitored for the luciferase bioluminescent signal immediately after injection (TO) and once weekly thereafter with a Xenogen IVIS Imaging System-100 (Caliper Life Sciences). Briefly, animals were injected by retro-orbital injection with 50 μl of D-luciferin (Promega) diluted in 1×PBS at 5 mg ml^−1. Continuous administration of isofluorane gas was provided to ensure anesthetizing animals during imaging. Data was quantified with the Living Image software version 4.4 (Caliper Life Sciences). Quantifications were calculated with unsaturated pixels. Color scale minimum and maximum values are shown in pictures.\nStudies on the combination of the effects of the ONA-0-v1 anti-CD36 antibody, both with and without cisplatin, were performed in NSG mice (immuno-deficient). The studies included both male and female mice. All mice were inoculated with commercially available FaDu (ATCC) cancer cells, transduced with a retroviral vector expressing luciferase and the green fluorescent protein (Luc-GFP). FaDu cells were derived from a squamous cell carcinoma (i.e., from an oral cancer). Prior to inoculation, the FaDu cells were cultured in a humidified incubator at 37° C. with 5% CO2, and were grown in EMEM (LONZA) supplemented with 5 μg ml^−1 penicillin/streptomycin and 10% FBS (GIBCO).\nFor each mouse, 100,000 FaDu cells were inoculated via orthotopic injection.\nTreatment of the inoculated mice began nine days after inoculation with the cancer cells. Inoculated mice were divided into four distinct treatment groups.\nAntibody treatments were administered via intraperitoneal (i.p.) injection daily at a dose of 1 mg/kg. Cisplatin was administered twice weekly at a dose of 2 mg/kg (Groups 2 and 4). […] During the course of treatment, mice were observed once weekly using an in vivo imaging system (IVIS). Further, mouse body weight was measured twice weekly to update appropriate dosage amounts. At the end of the treatment period, the mice were sacrificed, and organs and tissues were collected for performance of immunohistochemistry analysis."}, "[2]": {"test_system": "Detroit 562 cells", "experiment": "Detroit 562 orthotopic mouse model of oral cancer metastasis", "type": "in vivo", "conditions": "single agent; antibody 1 mg/kg i.p. daily, cisplatin 2 mg/kg twice weekly", "method": "as §1, with “Continuous administration of isofluorane gas was provided to ensure anesthetizing animals during imaging.” left out, “Color scale minimum and maximum values are shown in pictures.” left out\nAntibody treatments were administered via intraperitoneal (i.p.) injection daily at a dose of 1 mg/kg. […] Further, mouse body weight was measured twice weekly to update appropriate dosage amounts. […]"}, "[3]": {"biological_target": "CD36 (Homo sapiens, UniProt P16671)", "sequence (P16671 30-439 limits assumed)": "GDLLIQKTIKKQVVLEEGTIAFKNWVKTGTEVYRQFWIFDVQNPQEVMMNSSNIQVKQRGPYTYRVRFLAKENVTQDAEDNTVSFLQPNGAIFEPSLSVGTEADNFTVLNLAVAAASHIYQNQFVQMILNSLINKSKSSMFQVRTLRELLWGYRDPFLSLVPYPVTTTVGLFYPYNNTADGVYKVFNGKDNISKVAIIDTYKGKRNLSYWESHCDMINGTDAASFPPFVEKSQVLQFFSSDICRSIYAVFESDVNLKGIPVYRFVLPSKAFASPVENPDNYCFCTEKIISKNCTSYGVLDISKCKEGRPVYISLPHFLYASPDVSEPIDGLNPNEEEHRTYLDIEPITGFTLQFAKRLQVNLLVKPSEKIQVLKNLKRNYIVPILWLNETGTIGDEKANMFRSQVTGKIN", "experiment": "ELISA binding to plate-coated human CD36", "set-up": "purchased Sino Biological 10752-H08H", "conditions": "recombinant human CD36 coated plates", "method": "(§2) To perform ELISA assays, 96-well ELISA plates were coated over night with human CD36 (Sino Biological, reference 10752-H08H) or mouse CD36 (Sino Biological, reference 50422-M08H) recombinant proteins at a concentration of 0.25 mg/ml. After two washes with PBS, plates were blocked with 4% skimmed milk in PBS for 1 hour at 37° C. Blocking solution was discarded and plates were washed five times with 200 μl/well PBS-Tween20 (0.5%). Primary antibodies were either omitted (control blocking solution treatment) or mixed in blocking solution at several dilutions ranging from 0.01 nM to 0.5 μM. The primary antibody solutions were added to the wells and incubated over night at 4° C. After 5 washes with 200 ul/well of PBS-Tween20 (0.5%), plates were incubated for 1 hour at room temperature with a goat anti-mouse HRP-conjugated antibody (Abeam, reference ab97235) diluted 1:2000 in blocking solution. Plates were then washed 5 times with 200 μl/well of PBS-Tween20 (0.5%), incubated with 100 μl/well TMB and detected after 10 minutes, 30 minutes, or 60 minutes with a spectrophotometer at a wave length of 630 nm."}, "[4]": {"biological_target": "T1, mouse CD36 (Mus musculus, UniProt Q08857)", "T1 construct": "purchased Sino Biological 50422-M08H", "T1 sequence (Q08857 30-439 limits assumed)": "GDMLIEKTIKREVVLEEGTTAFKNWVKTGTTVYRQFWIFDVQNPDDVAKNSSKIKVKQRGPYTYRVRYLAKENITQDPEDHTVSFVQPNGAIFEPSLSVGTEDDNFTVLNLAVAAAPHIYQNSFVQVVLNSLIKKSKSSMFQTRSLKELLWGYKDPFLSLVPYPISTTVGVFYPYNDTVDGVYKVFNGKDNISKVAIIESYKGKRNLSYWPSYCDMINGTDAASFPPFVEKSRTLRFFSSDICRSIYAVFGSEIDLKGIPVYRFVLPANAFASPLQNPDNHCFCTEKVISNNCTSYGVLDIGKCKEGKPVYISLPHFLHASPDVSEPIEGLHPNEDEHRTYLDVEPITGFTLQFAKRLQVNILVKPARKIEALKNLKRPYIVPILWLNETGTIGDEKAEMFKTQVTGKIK", "experiment": "ELISA binding to plate-coated mouse CD36", "conditions": "recombinant mouse CD36 coated plates", "method": "as §2"}, "[5]": {"biological_target": "T2, cells overexpressing human CD36 (Homo sapiens, UniProt P16671)", "T2 construct": "expressed in transfected cells", "T2 sequence (P16671 whole entry)": "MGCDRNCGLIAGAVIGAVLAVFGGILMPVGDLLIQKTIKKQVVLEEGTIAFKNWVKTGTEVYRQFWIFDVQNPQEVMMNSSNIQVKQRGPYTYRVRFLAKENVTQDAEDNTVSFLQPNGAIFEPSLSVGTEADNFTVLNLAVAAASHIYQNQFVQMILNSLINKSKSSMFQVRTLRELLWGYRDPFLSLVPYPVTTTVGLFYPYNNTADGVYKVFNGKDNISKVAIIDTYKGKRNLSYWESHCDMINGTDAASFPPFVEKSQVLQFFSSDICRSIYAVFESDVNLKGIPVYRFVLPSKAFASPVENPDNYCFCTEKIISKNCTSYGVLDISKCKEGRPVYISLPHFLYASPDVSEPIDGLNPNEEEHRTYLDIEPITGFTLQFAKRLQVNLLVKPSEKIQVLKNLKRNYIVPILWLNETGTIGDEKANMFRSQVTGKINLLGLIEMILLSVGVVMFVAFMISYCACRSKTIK", "experiment": "FACS binding to cells overexpressing human CD36", "conditions": "serial dilution up to 100 nM", "method": "For FACS analysis, cells were trypsinized, collected in a 15 mL tube and diluted in washing buffer (2% FBS in PBS). Cells were then centrifuged at 1500 rpm for 5 min at 4° C., supernatant was discarded, and cells were resuspended in fresh washing buffer. Anti-CD36 antibodies were either omitted (control wash buffer treatment) or serially diluted in washing buffer (dilution range up to 100 nM), and then added to the cells. Incubation was performed on ice for 1 hour. Cells were then centrifuged at 1500 rpm for 5 min at 4° C., supernatant was discarded, and cells were resuspended in fresh washing buffer. Finally, cells were incubated with a […] (BV421 Rat Anti-Mouse IgA, Becton Dickinson, reference 743293) diluted 1:100 in washing buffer, washed and analysed by FACS."}}, "data": [{"molecule": "N.N.[Cl][Pt][Cl]", "note": "[cisplatin, reference compound]", "values": [{"measurement": "mice in which metastasis into lymph nodes was prevented", "setting": "[1]; eight tested mice per group", "result": "one of the eight"}, {"measurement": "effect on primary tumor (IVIS imaging and H&E staining)", "setting": "[1]; antibody 1 mg/kg i.p. daily, cisplatin 2 mg/kg twice weekly", "result": "inhibited tumor growth"}, {"measurement": "size of lung metastases", "setting": "[2]", "result": "did reduce the size"}]}, {"molecule": "ONA-0-v2: murine IgA antibody; heavy chain SEQ ID NO: 5, light chain SEQ ID NO: 9 (antibody, ONA-0-v1 heavy chain; ONA-0-v2 light chain) heavy: QVQLKQSGADLVRPGASVKLSCKASGYTFTDYYINWVKQRPGQGLEWIARIYPGSGNTYYNEKFKGKATLTAEKSSSTAYMQLSSLTSEDSAVYFCARGIGGGFGMDYWGQGTSVTVSSESARNPTIYPLTLPPVLCSDPVIIGCLIHDYFPFGTMNVTWGKSGKDITTVNFPPALASGGRYTMSSQLTLPAVECPEGESVKCSVQHDSNPVQELDVNCSPTPPPPITIPSCQPSLSLQRPALEDLLLGSDASITCTLNGLRNPEGAAFTWEPSTGKDAVQKKAAQNSCGCYSVSSVLPGCAERWNSGASFKCTVTHPESGTLTGTIAKVTVNTFPPQVHLLPPPSEELALNELLSLTCLVRAFNPKEVLVRWLHGNEELSPESYLVFEPLKEPGEGATTYLVTSVLRVSAETWKQGDQYSCMVGHEALPMNFTQKTIDRLSGKPTNVSVSVIMSEGDGICY light: NIVMTQSPKSMSMSVGERVTLTCKASENVVTYVSWYQQKPEQSPKLLIYGASNRYTGVPDRFTGSGSATDFTLTISSVQAEDLADYHCGQGYSYPYTFGGGTKLEIKRADAAPTVSIFPPSSEQLTSGGASVVCFLNNFYPKDINVKWKIDGSERQNGVLNSWTDQDSKDSTYSMSSTLTLTKDEYERHNSYTCEATHKTSTSPIVKSFNRNEC", "values": [{"measurement": "binding to human CD36 in ELISA", "setting": "[3]", "result": "did not interact"}, {"measurement": "binding to mouse CD36 in ELISA", "setting": "[4]", "result": "did not interact"}]}, {"molecule": "1G06: chimeric ONA-0-v1 IgG1 antibody; heavy chain SEQ ID NO: 64, light chain SEQ ID NO: 23 (antibody) heavy: QVQLKQSGADLVRPGASVKLSCKASGYTFTDYYINWVKQRPGQGLEWIARIYPGSGNTYYNEKFKGKATLTAEKSSSTAYMQLSSLTSEDSAVYFCARGIGGGFGMDYWGQGTSVTVSSASTKGPSVFPLAPSSKSTSGGTAALGCLVKDYFPEPVTVSWNSGALTSGVHTFPAVLQSSGLYSLSSVVTVPSSSLGTQTYICNVNHKPSNTKVDKKVEPKSCDKTHTCPPCPAPESTRGPSVFLFPPKPKDTLMISRTPEVTCVVVDVSHEDPEVKFNWYVDGVEVHNAKTKPREEQYNSTYRVVSVLTVLHQDWLNGKEYKCKVSNKALPAPIEKTISKAKGQPREPQVYTLPPSRDELTKNQVSLTCLVKGFYPSDIAVEWESNGQPENNYKTTPPVLDSDGSFFLYSKLTVDKSRWQQGNVFSCSVMHEALHNHYTQKSLSLSPGK light: SIVMTQTPKFLLVSAGDRITITCKASQSVSDDVAWYQQKPGQSPKLLIYYASNRYTGVPDRFTGSGYGTDFTFTISTVQAEDLAVYFCQQDYSSPLTFGAGTKLEIKRTVAAPSVFIFPPSDEQLKSGTASVVCLLNNFYPREAKVQWKVDNALQSGNSQESVTEQDSKDSTYSLSSTLTLSKADYEKHKVYACEVTHQGLSSPVTKSFNRGEC", "values": [{"measurement": "binding to cells overexpressing human CD36 (FACS)", "setting": "[5]", "result": "bound equivalently"}]}]}
